Columns and labels:
S1P5 = biological target: T1, S1P5 (Homo sapiens, UniProt Q9H228); experiment: S1P5 agonist test, Tango S1P5-bla U-2 OS cells; type: cell-based; details: S1P5 TANGO U-2 OS cell line
T1 construct: Tango fusion partner (protease site + GAL4-VP16 transcription factor); expressed in transfected cells; host or cells: Tango S1P5-bla U-2 OS cells
Description: Since AD2900 is a sphingolipid analogue with properties that resemble those of S1P, we intended to examine its ability to interact with the S1P receptors. To delineate whether AD2900 can function as an agonistic or antagonistic compound to any of the S1P receptors, we used a high-throughput screening cell-based assay, employing cell lines stably transfected with human S1P receptors 1, 2, 3, 4, or 5 [37]. In this experiment, a compound with an IC50 or EC50 value ≤10 μM for a certain S1P receptor is considered active as an antagonist or an agonist, respectively. The results illustrate that AD2900 acts as an antagonist to all S1P receptors (Table 1, Supplementary Figure 3). […] No agonist activation was evident.
The S1P1 agonist test and S1P2, S1P3, S1P4, and S1P5 agonist and antagonist tests were conducted as previously described using S1P1 CRE-bla CHO cells, S1P2 CRE-bla CHO cells, S1P3 NFAT-bla CHO cells, Tango™ S1P4 (EDG6)-bla U-2 OS cells, and Tango™ S1P5 ([…])-bla U-2 OS cells. The S1P1 antagonist assay was carried out according to the manufacturer’s instructions using a Tango™ S1P1 (EDG1)-bla U-2 OS Cell-Based Assay (Invitrogen, NY, USA).

human PBMCs = experiment: Human allogeneic mixed lymphocyte reaction (MLR), [3H] thymidine incorporation, 1-day pretreatment; type: cell-based
Description: To select an analogue with potential anti-inflammatory activity, the effects of six of our unique synthetic sphingolipid analogues (all chemical structures can be found in Supplementary Figure 1A) on human immune cell activation were examined. Human PBMCs were cultured with the compounds for 1 day at different concentrations. The cells were then activated by PBMCs from a different donor in a mixed lymphocyte reaction (MLR) experiment. […] The amine derivative, AD2900, is substituted with amino diols. Structurally, AD2900 has a hydroxymethyl group on carbon 2 and no phenyl substitution. These characteristics cause AD2900 to be more hydrophilic than other analogues. In addition, previous studies have shown that AD2900 has a higher lethal dose 50% (LD50), which is above 100 mg/kg, and it is stable at room temperature for at least 2 years (unpublished data). Based on these characteristics, AD2900 was selected for further investigation. […]
Human PBLs were collected from human whole blood collected from healthy donors. […] For the thymidine incorporation assay, after 4 days of co-culture, cells were pulsed with ^3H-thymidine at 1 μCi (0.037MBq) per well (PerkinElmer, MA, USA) for 16 additional hours and then harvested onto glass-fiber filters. ^3H-thymidine incorporation was measured using Top Count. […]

Jurkat cell line = experiment: XTT viability assay, Jurkat; type: cell-based, human; details: 1-day treatment
Description: Figure 1 AD2900 inhibits human lymphocyte proliferation in allogeneic activation (A, B) The levels of proliferative response of human peripheral blood lymphocytes (PBMCs) after 1-day pretreatment with different concentrations of AD2900, AD2750, YZ138, YZ158, and YZ297 (A) or AD2900, FTY720, and SEW2871 (B) were tested by human allogeneic mixed lymphocyte reaction (MLR) assay, followed by a [3H] thymidine incorporation analysis. (C) Apoptosis of AD2900-treated activated PBMCs was tested by AnnexinV-propidium iodide (PI) FACS analysis following 1-day AD2900 pretreatment and MLR. All the samples were compared to the untreated PBMC control. (D) IFN-γ secretion from activated PBMCs was tested by ELISA following a 1-day AD2900 pretreatment in MLR. On the 5th day of hMLR, supernatants were collected and assayed for the level of IFN-γ. (E) Jurkat cell viability after a 1-day treatment with different concentrations of AD2900, FTY720, and SEW2871 was tested by XTT viability assay. (F) H9, CEM/C1, and Molt4 cell viability after a 1-day treatment with different concentrations of AD2900 was tested by XTT viability assay. Graphs summarize the results of at least three independent experiments. Results of Student’s t-test: *(P < 0.05, two-tailed test), ** (P < 0.01, two-tailed test), *** (P < 0.001, two-tailed test), **** (P < 0.0001, two-tailed test). […]

T1 sequence (Q9H228 whole entry, the tested form may be a part): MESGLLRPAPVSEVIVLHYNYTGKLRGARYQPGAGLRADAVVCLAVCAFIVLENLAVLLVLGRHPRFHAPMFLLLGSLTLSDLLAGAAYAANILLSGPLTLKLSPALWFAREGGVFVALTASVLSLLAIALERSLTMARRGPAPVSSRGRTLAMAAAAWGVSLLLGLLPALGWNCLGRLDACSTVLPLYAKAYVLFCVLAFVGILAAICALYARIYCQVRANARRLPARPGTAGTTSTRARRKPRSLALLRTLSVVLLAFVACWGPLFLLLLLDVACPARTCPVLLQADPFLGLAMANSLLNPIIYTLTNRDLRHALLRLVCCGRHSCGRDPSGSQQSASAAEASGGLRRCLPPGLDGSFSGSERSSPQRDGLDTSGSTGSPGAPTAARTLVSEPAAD

SMILES: CCCCCCCCCCCCCCCCNC(CO)(CO)CO [AD2900]
- EC50 (S1P5): > 50 µM
- inhibitory effect on lymphocyte activation compared to FTY720 and SEW2817 (human PBMCs; 1-day pretreatment prior to MLR, concentrations of 6–20 μM): compromised effect in comparison to FTY720 but a higher inhibitory effect than that with SEW2817
- inhibition of PBMC proliferation (human PBMCs; 1-day pretreatment, MLR, mean of up to, at the highest concentration): 76% ± 4%
- concentrations leading to reduced viability of Jurkat cells (Jurkat cell line): higher than 10 μM
- effect on Jurkat viability compared to FTY720 and SEW2817 (Jurkat cell line): lower than that with FTY720 treatment and higher than that with SEW2817

Source: publication PMC5581131, “The novel sphingosine-1-phosphate receptors antagonist AD2900 affects lymphocyte activation and inhibits T-cell entry into the lymph nodes” (Oncotarget, 2017)
